What was measured:
[1] = molecular target: R. sphaeroides cytochrome c oxidase (RsCcO) wild-type (Cereibacter sphaeroides, UniProt P33517+Q03736); test: biochemical; assay type: biochemical, Rhodobacter sphaeroides; conditions: for Shape of response in ligand titration: activation at low ligand concentration followed by inhibition at higher concentration
RsCcO E101A mutant [2] = molecular target: T1, RsCcO E101A mutant (Cereibacter sphaeroides, UniProt P33517+Q03736, E101A); conditions: cited from earlier work
T1 sequence (P33517 whole entry): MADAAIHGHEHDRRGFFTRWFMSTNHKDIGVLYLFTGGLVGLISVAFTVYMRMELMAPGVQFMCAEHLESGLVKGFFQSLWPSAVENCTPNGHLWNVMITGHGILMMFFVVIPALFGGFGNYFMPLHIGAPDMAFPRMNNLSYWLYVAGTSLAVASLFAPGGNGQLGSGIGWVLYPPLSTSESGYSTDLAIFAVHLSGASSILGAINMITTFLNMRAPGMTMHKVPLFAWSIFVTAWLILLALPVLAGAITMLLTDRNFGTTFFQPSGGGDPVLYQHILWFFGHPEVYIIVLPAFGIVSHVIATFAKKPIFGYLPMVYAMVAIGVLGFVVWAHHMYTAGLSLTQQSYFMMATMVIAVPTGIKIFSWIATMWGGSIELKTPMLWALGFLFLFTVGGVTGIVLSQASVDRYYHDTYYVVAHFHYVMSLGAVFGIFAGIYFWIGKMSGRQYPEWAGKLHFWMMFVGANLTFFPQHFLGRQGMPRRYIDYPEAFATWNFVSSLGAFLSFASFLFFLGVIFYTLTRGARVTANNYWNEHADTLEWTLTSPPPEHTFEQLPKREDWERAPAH
T1 sequence (Q03736 26-303 E101A): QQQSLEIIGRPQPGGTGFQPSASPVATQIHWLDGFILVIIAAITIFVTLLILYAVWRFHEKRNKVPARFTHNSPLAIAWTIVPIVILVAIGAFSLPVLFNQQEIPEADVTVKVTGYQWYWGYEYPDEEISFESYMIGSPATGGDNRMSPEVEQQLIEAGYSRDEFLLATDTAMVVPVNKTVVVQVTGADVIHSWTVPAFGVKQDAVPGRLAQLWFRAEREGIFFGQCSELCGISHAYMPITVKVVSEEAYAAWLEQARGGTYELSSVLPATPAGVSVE

RsCcO E101A mutant [3] = molecular target: T1, RsCcO E101A mutant; test: biochemical; design: species or system Rhodobacter sphaeroides

Chain of R. sphaeroides cytochrome c oxidase (RsCcO) wild-type (P33517 whole entry): as the sequence (P33517 whole entry) above
Chain of R. sphaeroides cytochrome c oxidase (RsCcO) wild-type (Q03736 26-303): as the sequence (Q03736 26-303 E101A) above, with A76E counted along it

Molecule: C[C@]12CC[C@@H]3c4ccc(O)cc4CC[C@H]3[C@@H]1CC[C@@H]2O [estradiol]
- Effect on RsCcO under low or high concentrations of cytochrome c ([1]; WT, 0–30 μM cytochrome c): failed to affect RsCcO
- Effect on RsCcO activity at maximal ligand concentration ([1]; WT, saturating cytochrome c): no significant effect

Molecule: NC(=O)c1ccc[n+]([C@@H]2O[C@H](COP(=O)([O-])OP(=O)(O)OC[C@H]3O[C@@H](n4cnc5c(N)ncnc54)[C@H](O)[C@@H]3O)[C@@H](O)[C@H]2O)c1 [NAD^+]
- Effect on RsCcO under low or high concentrations of cytochrome c ([1]; WT, 0–30 μM cytochrome c): failed to affect RsCcO
- Effect on RsCcO activity at maximal ligand concentration ([1]; WT, saturating cytochrome c): no significant effect

Molecule: Nc1ncnc2c1ncn2[C@@H]1O[C@H](COP(=O)(O)OP(=O)(O)NP(=O)(O)O)[C@@H](O)[C@H]1O [ATP analog, adenosine 5′-(β, γ-imido) triphosphate]
- Effect on E101A mutant activity (RsCcO E101A mutant [2]): very low stimulation and no inhibition of activity
- Competition with DOC inhibition of RsCcO ([1]; WT, 5 mM ATP analog, DOC 0–2 mM, saturating cytochrome c): prevented DOC in the 0–2 mM range from inhibiting RsCcO activity
- Effect of ligand alone on RsCcO activity ([1]; WT, 5 mM ligand, saturating cytochrome c): no effect
- Shape of response in ligand titration ([1]; WT, saturating cytochrome c): biphasic response

Molecule: CC1=C(/C=C/C(C)=C/C=C/C(C)=C/C(=O)O)C(C)(C)CCC1 [retinoic acid]
- IC50 [1]: 1.7 mM
- Ki [1]: 0.14 mM
- Shape of response in ligand titration ([1]; WT, saturating cytochrome c): biphasic response
- IC50 (RsCcO E101A mutant [3]): 0.19 mM

Molecule: Cc1cc2nc3c(=O)[nH]c(=O)nc-3n(C[C@H](O)[C@H](O)[C@H](O)COP(=O)(O)OP(=O)(O)OC[C@H]3O[C@@H](n4cnc5c(N)ncnc54)[C@H](O)[C@@H]3O)c2cc1C [FAD]
- Effect on RsCcO activity at maximal ligand concentration ([1]; WT, saturating cytochrome c): no significant effect

Molecule: C[C@]12CCC(=O)C=C1CC[C@@H]1[C@@H]2[C@@H](O)C[C@]2(C=O)[C@@H](C(=O)CO)CC[C@@H]12 [aldosterone]
- Effect on RsCcO under low or high concentrations of cytochrome c ([1]; WT, 0–30 μM cytochrome c): failed to affect RsCcO
- Effect on RsCcO activity at maximal ligand concentration ([1]; WT, saturating cytochrome c): no significant effect

Molecule: CC(C)=CCC/C(C)=C/CC/C(C)=C/CO[P@@](=O)(O)OP(=O)(O)O (stereo in doubt) [farnesyl diphosphate]
- Effect on RsCcO activity at maximal ligand concentration ([1]; WT, saturating cytochrome c): no significant effect

Molecule: cytochrome c: purified bovine heart cytochrome c used as the substrate
- Km ([1]; read-out: Km of cytochrome c, RsCcO WT and E101A, unchanged by DOC inhibition): ~1 µM

Molecule: C[C@]12CCC(=O)C=C1CC[C@@H]1[C@@H]2[C@@H](O)C[C@@]2(C)[C@H]1CC[C@]2(O)C(=O)CO [hydrocortisone]
- Effect on RsCcO under low or high concentrations of cytochrome c ([1]; WT, 0–30 μM cytochrome c): failed to affect RsCcO
- Effect on RsCcO activity at maximal ligand concentration ([1]; WT, saturating cytochrome c): no significant effect

Molecule: C[C@]12CC[C@H]3[C@@H](CCC4=CC(=O)CC[C@@]43C)[C@@H]1CC[C@@H]2O [testosterone]
- Effect on RsCcO under low or high concentrations of cytochrome c ([1]; WT, 0–30 μM cytochrome c): failed to affect RsCcO
- Effect on RsCcO activity at maximal ligand concentration ([1]; WT, saturating cytochrome c): no significant effect

Molecule: C[C@H](CCC(=O)O)[C@H]1CC[C@H]2[C@@H]3CC[C@@H]4C[C@H](O)CC[C@]4(C)[C@H]3C[C@H](O)[C@]12C [DOC, deoxycholate]
- IC50 [1]: 1.4 mM
- Mode of inhibition with respect to cytochrome c ([1]; WT, 0–30 μM cytochrome c): noncompetitive inhibition
- Maximal lowering of RsCcO activity ([1]; WT, saturating cytochrome c): more than 90%
- Mode of inhibition with respect to cytochrome c (RsCcO E101A mutant [3]; E101A mutant, 0–30 μM cytochrome c): noncompetitive inhibition

Molecule: CC(=O)O[C@H]1C[C@@]2(C)[C@@H](C[C@@H](O)[C@H]3[C@@]4(C)CC[C@@H](O)[C@@H](C)[C@@H]4CC[C@@]32C)/C1=C(\CCC=C(C)C)C(=O)O [Fusidic acid, fusidic acid]
- IC50 [1]: 3.4 mM
- Ki [1]: 2.5 mM
- Shape of response in ligand titration ([1]; WT, saturating cytochrome c): biphasic response

Molecule: Nc1ncnc2c1ncn2[C@@H]1O[C@H](COP(=O)(O)OP(=O)(O)O)[C@@H](O)[C@H]1O [ADP]
- Effect on RsCcO activity at maximal ligand concentration ([1]; WT, saturating cytochrome c): no significant effect

Molecule: Nc1nc2c(ncn2[C@@H]2O[C@H](COP(=O)(O)OP(=O)(O)O)[C@@H](O)[C@H]2O)c(=O)[nH]1 [GDP]
- Effect on E101A mutant activity (RsCcO E101A mutant [2]): very low stimulation and no inhibition of activity
